# System: IL-6
# Assay: Human monocyte assay, LPS-stimulated IL-6
# Type: cell-based
# Conditions: Monocyte; human monocytes, 1 μg/ml LPS, 5 hours
# Procedure: The assay was designed as in the reference, Physiol.
# Peripheral blood mononuclear cells (hPBMC) were harvested from human blood and suspended in RPMI 1640 culture medium containing 10% FCS, 100 U/mL penicillin and […] streptomycin (assay medium). Monocytes in the hPBMCs were counted using a Coulter Counter following which the cells were resuspended at 2×10^5 monocytes/mL. A cell suspension containing 2×10^4 monocytes was aliquoted per well of a 96-well plate. Subsequently, the hPBMCs were incubated for 4-5 hours at 37° C., 5% CO2 (During the incubation, the monocytes adhered to the bottom of 96-well plastic culture plate). Following the incubation, the non-adherent lymphocytes were washed with assay medium and the adherent monocytes re-fed with assay medium. After a 48-hour incubation period (37° C., 5% CO2), monocytes were pretreated with various concentrations of representative compounds of present invention (refer to table 6 and 7) (prepared in DMSO) or vehicle (0.5% DMSO) for 30 minutes and stimulated with 1 μg/ml LPS (Escherchia coli 0111:B4, Sigma Chemical Co., St. Louis, Mo.). The incubation was continued for 5 hours at 37° C., 5% CO2. Supernatants were harvested, assayed for IL-6 and TNF-α by ELISA as described by the manufacturer (BD Biosciences, USA). Dexamethasone (10 μM) was used as standard for this assay. […] Biological results for both IL-6 and TNFα are indicated in Table 6 and Table 7 respectively.
row,IC50 [µM],SMILES
1,0.001 to 5,"COc1ccc(OC)c(S(=O)(=O)N(C)/N=C/c2cnc3ccc(-c4cccnc4)cn23)c1 [Example 52, (E)-2,5-dimethoxy-N-methyl-N′-((6-(pyridin-3-yl)imidazo[1,2-a]pyridin-3-yl)methylene) benzenesulfonohydrazide]"
2,0.001 to 5,"COc1ccc(Cl)cc1S(=O)(=O)N(C)/N=C/c1cnc2ccc(-c3cccnc3)cn12 [Example 55, (E)-5-chloro-2-methoxy-N-methyl-N′-((6-(pyridin-3-yl)imidazo[1,2-a]pyridin-3-yl)methylene) benzenesulfonohydrazide]"
3,0.001 to 5,"CN(/N=C/c1cnc2ccc(-c3cccnc3)cn12)S(=O)(=O)c1ccc(Br)cc1OC(F)(F)F [Example 56, (E)-4-bromo-N-methyl-N′-((6-(pyridin-3-yl)imidazo[1,2-a]pyridin-3-yl)methylene)-2-(trifluoromethoxy)benzenesulfonohydrazide]"
4,0.001 to 5,"CN(/N=C/c1cnc2ccc(-c3cccnc3)cn12)S(=O)(=O)c1cc(C(F)(F)F)ccc1Br [Example 57, (E)-2-bromo-N-methyl-N′-((6-(pyridin-3-yl)imidazo[1,2-a]pyridin-3-yl)methylene)-5-(trifluoromethyl)benzenesulfonohydrazide]"
5,0.001 to 5,"CN(/N=C/c1cnc2ccc(-c3cccnc3)cn12)S(=O)(=O)c1ccccc1[N+](=O)[O-] [Example 58, (E)-N-methyl-2-nitro-N′-((6-(pyridin-3-yl)imidazo[1,2-a]pyridin-3-yl)methylene)benzenesulfonohydrazide]"
6,0.001 to 5,"CN(/N=C/c1cnc2ccc(-c3cccnc3)cn12)S(=O)(=O)c1ccccc1S(C)(=O)=O [Example 59, (E)-N-methyl-2-(methylsulfonyl)-N′-((6-(pyridin-3-yl)imidazo[1,2-a]pyridin-3-yl)methylene) benzenesulfonohydrazide]"
7,0.001 to 5,"CN(/N=C/c1cnc2ccc(-c3cccnc3)cn12)S(=O)(=O)c1ccccc1Oc1ccccc1 [Example 60, (E)-N-methyl-2-phenoxy-N′-((6-(pyridin-3-yl)imidazo[1,2-a]pyridin-3-yl)methylene)benzenesulfonohydrazide]"
8,0.001 to 5,"CCCCCCS(=O)(=O)N(C)/N=C/c1cnc2ccc(-c3cccnc3)cn12 [Example 61, (E)-N-methyl-N′-((6-(pyridin-3-yl)imidazo[1,2-a]pyridin-3-yl)methylene) hexane-1-sulfonohydrazide]"
9,0.001 to 5,"CN(/N=C/c1cnc2ccc(-c3cccnc3)cn12)S(=O)(=O)c1cc(C(F)(F)F)ccc1N1CCOCC1 [Example 62, (E)-N-methyl-2-morpholino-N′-((6-(pyridin-3-yl)imidazo[1,2-a]pyridin-3-yl)methylene)-5-(trifluoromethyl)benzenesulfonohydrazide]"
10,0.001 to 5,"Cc1ccc(S(C)(=O)=O)cc1S(=O)(=O)N(C)/N=C/c1cnc2ccc(-c3cccnc3)cn12 [Example 63, (E)-N,2-dimethyl-5-(methylsulfonyl)-N′-((6-(pyridin-3-yl)imidazo[1,2-a]pyridin-3-yl)methylene) benzenesulfonohydrazide]"
11,0.001 to 5,"CN(/N=C/c1cnc2ccc(-c3cccnc3)cn12)S(=O)(=O)c1ccccc1Br [Example 64, (E)-2-bromo-N-methyl-N′-((6-(pyridin-3-yl)imidazo[1,2-a]pyridin-3-yl)methylene) benzenesulfonohydrazide]"
12,0.001 to 5,"CN(/N=C/c1cnc2ccc(-c3cccnc3)cn12)S(=O)(=O)c1ccc(N2CCOCC2)nc1 [Example 66, (E)-N-methyl-6-morpholino-N′-((6-(pyridin-3-yl)imidazo[1,2-a]pyridin-3-yl)methylene) pyridine-3-sulfonohydrazide]"
13,0.001 to 5,"COC(=O)c1ccc(S(=O)(=O)N(C)/N=C/c2cnc3ccc(-c4cccnc4)cn23)n1C [Example 67, (E)-Methyl 1-methyl-5-(1-methyl-2-((6-(pyridin-3-yl)imidazo[1,2-a]pyridin-3-yl)methylene) hydrazinylsulfonyl)-1H-pyrrole-2-carboxylate]"
14,0.001 to 5,"CN1CCOc2cc(S(=O)(=O)N(C)/N=C/c3cnc4ccc(-c5cccnc5)cn34)cnc21 [Example 68, (E)-N,4-dimethyl-N′-((6-(pyridin-3-yl)imidazo[1,2-a]pyridin-3-yl)methylene)-3,4-dihydro-2H-pyrido[3,2-b][1,4]oxazine-7-sulfonohydrazide]"
15,0.001 to 5,"CN(/N=C/c1cnc2ccc(-c3cccnc3)cn12)S(=O)(=O)c1cccnc1 [Example 69, (E)-N-methyl-N′-((6-(pyridin-3-yl)imidazo[1,2-a]pyridin-3-yl)methylene) pyridine-3-sulfonohydrazide]"
16,0.001 to 5,"CN(/N=C/c1cnc2ccc(-c3cccnc3)cn12)S(=O)(=O)c1ccc(Oc2ccccc2)cc1 [Example 70, (E)-N-methyl-4-phenoxy-N′-((6-(pyridin-3-yl)imidazo[1,2-a]pyridin-3-yl)methylene)benzenesulfonohydrazide]"
17,≥ 5,"CN(/N=C/c1cnc2ccc(-c3cccnc3)cn12)S(=O)(=O)c1ccc(-c2ccccc2)cc1 [Example 72, (E)-N-methyl-N′-((6-(pyridin-3-yl)imidazo[1,2-a]pyridin-3-yl)methylene)biphenyl-4-sulfonohydrazide]"
18,0.001 to 5,"CN(/N=C/c1cnc2ccc(-c3cccnc3)cn12)S(=O)(=O)c1ccc(Cl)c([N+](=O)[O-])c1 [Example 74, (E)-4-chloro-N-methyl-3-nitro-N′-((6-(pyridin-3-yl)imidazo[1,2-a]pyridin-3-yl)methylene) benzenesulfonohydrazide]"
19,0.001 to 5,"Cc1ccc(F)cc1S(=O)(=O)N(C)/N=C/c1cnc2ccc(-c3cccnc3F)cn12 [Example 87, (E)-5-Fluoro-N′-((6-(2-fluoropyridin-3-yl)imidazo[1,2-a]pyridin-3-yl)methylene)-N,2-dimethylbenzenesulfonohydrazide]"
20,≥ 5,"Cc1cc(-c2cccnc2)cn2c(/C=N/N(C)S(=O)(=O)c3ccccc3C#N)cnc12 [Example 104, (E)-2-cyano-N-methyl-N′-((8-methyl-6-(pyridin-3-yl)imidazo[1,2-a]pyridin-3-yl)methylene)benzenesulfonohydrazide]"
21,≥ 5,"Cc1cc(-c2cccnc2)cn2c(/C=N/N(C)S(=O)(=O)c3cccc(C#N)c3)cnc12 [Example 106, (E)-3-cyano-N-methyl-N′-((8-methyl-6-(pyridin-3-yl)imidazo[1,2-a]pyridin-3-yl)methylene)benzenesulfonohydrazide]"
22,0.001 to 5,"Cc1cc(S(=O)(=O)N(C)/N=C/c2cnc3c(C)cc(-c4cccnc4)cn23)ccc1Br [Example 107, (E)-4-Bromo-N,3-dimethyl-N′-((8-methyl-6-(pyridin-3-yl)imidazo[1,2-a]pyridin-3-yl)methylene)benzenesulfonohydrazide]"
23,≥ 5,"Cc1cc(-c2cccnc2)cn2c(/C=N/N(C)S(=O)(=O)c3cccc([N+](=O)[O-])c3)cnc12 [Example 109, (E)-N-methyl-N′-((8-methyl-6-(pyridin-3-yl)imidazo[1,2-a]pyridin-3-yl)methylene)-3-nitrobenzenesulfonohydrazide]"
24,≥ 5,"Cc1cc(-c2cccnc2)cn2c(/C=N/N(C)S(=O)(=O)c3cccc(Cl)c3)cnc12 [Example 110, (E)-3-Chloro-N-methyl-N′-((8-methyl-6-(pyridin-3-yl)imidazo[1,2-a]pyridin-3-yl)methylene)benzenesulfonohydrazide]"
25,0.001 to 5,"Cc1cc(-c2cccnc2)cn2c(/C=N/N(C)S(=O)(=O)c3ccc(Cl)c([N+](=O)[O-])c3)cnc12 [Example 113, (E)-4-Chloro-N-methyl-N′-((8-methyl-6-(pyridin-3-yl)imidazo[1,2-a]pyridin-3-yl)methylene)-3-nitrobenzenesulfonohydrazide]"
26,≥ 5,"Cc1cc(-c2cccnc2)cn2c(/C=N/N(C)S(=O)(=O)c3ccc(F)cc3Br)cnc12 [Example 114, (E)-2-Bromo-4-fluoro-N-methyl-N′-((8-methyl-6-(pyridin-3-yl)imidazo[1,2-a]pyridin-3-yl)methylene)benzenesulfonohydrazide]"
27,≥ 5,"Cc1cc2ncc(C=NN(C)S(=O)(=O)c3ccccc3C#N)n2cc1-c1cccnc1 [Example 117, 2-Cyano-N-methyl-N′-((7-methyl-6-(pyridin-3-yl)imidazo[1,2-a]pyridin-3-yl)methylene) benzenesulfonohydrazide]"
28,≥ 5,"Cc1cc2ncc(C=NN(C)S(=O)(=O)c3cc(F)ccc3C)n2cc1-c1cccnc1 [Example 118, 5-Fluoro-N, 2-dimethyl-N′-((7-methyl-6-(pyridin-3-yl)imidazo[1,2-a]pyridin-3-yl)methylene) benzenesulfonohydrazide]"

# Same assay, conditions: human monocytes, 1 μg/ml LPS, 5 hours
row,IC50 [µM],SMILES
1,≥ 5,"COC(=O)c1ccc(S(=O)(=O)N(C)/N=C/c2cnc3ccc(-c4cccnc4)cn23)o1 [Example 73, (E)-Methyl 5-(1-methyl-2-((6-(pyridin-3-yl)imidazo[1,2-a]pyridin-3-yl)methylene) hydrazinylsulfonyl) furan-2-carboxylate]"
2,0.001 to 5,Cc1cc(-c2cccnc2)cn2c(/C=N/N(C)S(=O)(=O)c3cc(F)cc(F)c3)cnc12 [Example 101]
3,≥ 5,Cc1cc(-c2cccnc2)cn2c(/C=N/N(C)S(=O)(=O)c3c(F)cc(F)cc3Br)cnc12 [Example 112]

# From patent publication US8741932B2, “Imidazopyridine derivatives” (Piramal Enterprises Limited, priority 2009, dated 2014)
